The results in this text go back to ChEMBL document CHEMBL1127015, “Centrally acting serotonergic and dopaminergic agents. 1. Synthesis and structure-activity relationships of 2,3,3a,4,5,9b-hexahydro-1H-benz[e]indole derivatives” (J Med Chem, 1993).

Each structure is given as a SMILES string. pIC50, pKi: −log10 of the molar value.

Assay [1] deals with Rattus norvegicus. Kind of assay: Inhibition of firing rates of dopaminergic neurons in the substantia nigra pars compacta by intravenous injection in rats. The assay is classed as functional. Particulars: Rattus norvegicus, Substantia nigra pars compacta, iv; read-out: ED50.
The subject of assay [2] is Mus musculus. Kind of assay: Time of effect in the face-to-face behavioral assay in the mouse when a dose of 34 micro mol/kg is administered subcutaneously. The assay is classed as functional.
Assay [3] relates to Mus musculus. Description: Time of effect in the isolation-induced aggression behavioral assay in the mouse when a dose of 10 micro mol/kg is administered intraperitoneally. The assay is classed as functional.
The test system of assay [4] is Felis catus. Kind of assay: Maximum decrease of arterial blood pressure at sympathetic nerve activity (SND) in anesthetized cat has been observed following 1 mg/kg dose. The assay is classed as functional. Set-up: scale not given: the % may be the effect or the level left.
In assay [5] the test system is Mus musculus. Description: Effective dose on hypothermia in mouse when administered subcutaneously. It is filed as functional. Particulars: sc.
The subject of assay [6] is Mus musculus. Kind of assay: Maximum decrease in temperature when compound is administered subcutaneously. The assay is classed as functional.
Assay [7] deals with Mus musculus. Kind of assay: Effective dose on hypothermia in mouse when administered through peroral route. Particulars: po. The assay is classed as functional.
Assay [8] concerns Mus musculus. Description: Time of effect in the isolation-induced aggression behavioral assay in the mouse when a dose of 3.4 micro mol/kg is administered intraperitoneally. It is filed as functional.
Assay [9] concerns Mus musculus. Kind of assay: Maximum decrease in temperature when compound is administered through peroral route. It is filed as functional.
The subject of assay [10] is Mus musculus. Description: Time of effect in the face-to-face behavioral assay in the mouse when a dose of 0.0 micro mol/kg is administered subcutaneously. It is filed as functional.
Assay [11] deals with Rattus norvegicus. Kind of assay: Inhibition of firing rates of serotonergic neurons in the dorsal raphe nucleus by intravenous injection in rats. It is filed as functional.
The test system of assay [12] is Felis catus. Description: Maximum decrease of sympathetic nerve activity (SND) in anesthetized cat has been expressed as percent control. Also noted: scale not given: the % may be the effect or the level left. It is filed as functional.
Assay [13] addresses T1, D(2) dopamine receptor (Rattus norvegicus, UniProt P61169). Description: Inhibitory concentration against [3H]raclopride-labeled dopamine receptor D2 in rat striatum. It is filed as tissue-based.
The test system of assay [14] is Felis catus. Description: Maximum decrease of sympathetic nerve activity (SND) in anesthetized cat. The assay is classed as functional. Also noted: scale not given: the % may be the effect or the level left.
Assay [15] deals with Mus musculus. Kind of assay: Antagonism of apomorphine for 0-10 minutes in reserpinized mice when a dose of 3.6 micro mol/kg is administered intraperitoneally. The assay is classed as functional.
For assay [16], the species on record is Rattus norvegicus. Description: Effect on the synthesis rates of serotonin (5-HTP accumulation) in the rat ventral limbic brain region at 3.6uMkg. The assay is classed as functional, Limbic system.
The test system of assay [17] is Mus musculus. Description: Antagonism of apomorphine in reserpinized mice when a dose of 36 micro mol/kg is administered intraperitoneally. It is filed as functional.
Assay [18] has as its system Rattus norvegicus. Description: Inhibition of firing rates of serotonergic neurons in the dorsal raphe nucleus by intravenous injection in rats. It is filed as functional.
Assay [19] deals with Mus musculus. Description: Ability to stimulate dopaminergic systems by effect on locomotor activity in reserpinized mice when a dose of 3.6 micro mol/kg is administered intraperitoneally. The assay is classed as functional.
In assay [20] the test system is Mus musculus. Kind of assay: Increase in locomotor activity in reserpinized mice following 0.4 umol/kg i.p. It is filed as functional.
For assay [21], the system named is Mus musculus. Description: Ability to stimulate dopaminergic systems by effect on locomotor activity in reserpinized mice when a dose of 36 micro mol/kg is administered intraperitoneally. The assay is classed as functional.
In assay [22] the test system is Mus musculus. Description: Antagonism of apomorphine for 0-10 minutes in reserpinized mice when a dose of 36 micro mol/kg is administered intraperitoneally. It is filed as functional.
The test system of assay [23] is Mus musculus. Kind of assay: Antagonism of apomorphine effects in reserpinized mice following 0.4 umol/kg i.p. The assay is classed as functional.
The subject of assay [24] is Mus musculus. Description: Antagonism of apomorphine in reserpinized mice when a dose of 3.6 micro mol/kg is administered intraperitoneally. It is filed as functional.
The test system of assay [25] is Mus musculus. Description: Antagonism of apomorphine effects for 10-20 minutes in reserpinized mice following 0.4 umol/kg i.p. The assay is classed as functional.
Assay [26] concerns Mus musculus. Kind of assay: Antagonism of apomorphine for 10-20 minutes in reserpinized mice when a dose of 3.6 micro mol/kg is administered intraperitoneally. The assay is classed as functional.
Assay [27] deals with Rattus norvegicus. Kind of assay: Effect on the synthesis rates of dopamine (DOPA accumulation) in the rat ventral limbic brain region at 3.6 micro mol/kg. The assay is classed as functional, Limbic system.
The test system of assay [28] is Mus musculus. Kind of assay: Antagonism of apomorphine for 10-20 minutes in reserpinized mice when a dose of 36 micro mol/kg is administered intraperitoneally. It is filed as functional.
Assay [29] concerns Mus musculus. Kind of assay: Antagonism of apomorphine effects for 0-10 minutes in reserpinized mice following 0.4 umol/kg i.p. The assay is classed as functional. Set-up: unit not given beside the values.
The species named for assay [30] is Rattus norvegicus. Description: Effect on the synthesis rates of serotonin (5-HTP accumulation) in the rat ventral limbic brain region at 10.6uMkg. It is filed as functional, Limbic system.
The species entered for assay [31] is Rattus norvegicus. Description: Effect on the synthesis rates of serotonin (5-HTP accumulation) in the rat ventral limbic brain region at 10.6uMkg. The assay is classed as functional, Limbic system.
Assay [32] addresses T1, D(2) dopamine receptor. Kind of assay: Compound was evaluated for the binding affinity against [3H]U-86,170-labeled dopamine receptor D2 in cloned CHO cells. It is filed as cell-based.
Assay [33] concerns Mus musculus. Description: Antagonism of apomorphine for 0-10 minutes in reserpinized mice when a dose of 0.4 micro mol/kg is administered intraperitoneally (*,p<0.05). It is filed as functional.
The test system of assay [34] is Rattus norvegicus. Description: Effect on the synthesis rates of dopamine in the rat ventral limbic brain region at 12 micro mol/kg. It is filed as functional, Limbic system.
Assay [35] has as its system Rattus norvegicus. Description: Effect on the synthesis rates of serotonin in the rat ventral limbic brain region at 12 micro mol/kg. It is filed as functional, Limbic system.
In assay [36] the test system is Felis catus. Kind of assay: Effective dose at which the sympathetic nerve activity (SND) has been reduced to 50% of the pretreatment value in anesthetized cat. The assay is classed as functional.
The species named for assay [37] is Felis catus. Kind of assay: Percent of arterial blood pressure at sympathetic nerve activity (SND) dose value was determined. It is filed as functional.

T1 sequence (P61169 whole entry): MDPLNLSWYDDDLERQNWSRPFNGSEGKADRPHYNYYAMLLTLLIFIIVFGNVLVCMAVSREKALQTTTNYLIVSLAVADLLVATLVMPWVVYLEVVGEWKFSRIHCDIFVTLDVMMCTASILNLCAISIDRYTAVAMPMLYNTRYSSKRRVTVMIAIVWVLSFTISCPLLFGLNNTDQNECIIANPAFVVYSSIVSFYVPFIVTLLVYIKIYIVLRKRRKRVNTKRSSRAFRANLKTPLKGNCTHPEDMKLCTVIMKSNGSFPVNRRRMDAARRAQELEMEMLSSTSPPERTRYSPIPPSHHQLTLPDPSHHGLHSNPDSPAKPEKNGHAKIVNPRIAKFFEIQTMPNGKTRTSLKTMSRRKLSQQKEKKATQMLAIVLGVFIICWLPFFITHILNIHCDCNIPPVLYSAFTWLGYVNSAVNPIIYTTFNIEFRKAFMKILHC

Turning to `CCCN1[C@H](C)CC2c3c(cccc3OC)CC[C@H]21` (mixture of isomers), the median effective dose (ED50) with Rattus norvegicus [1] came to 1.7 µmol/kg; with Mus musculus [5] it was 19 µmol/kg; in the assay on Mus musculus [7] it was 104 µmol/kg; in the assay with Rattus norvegicus [11], 0.1 µmol/kg. For the same compound, the Time in the assay on Mus musculus [2] was found to be 1.5 s; with Mus musculus [3], 8 s; in the assay on Mus musculus [8], 17 s; in the assay on Mus musculus [10], 0.6 s. Moreover, the figures for the Control with Felis catus [4] and in the assay with Felis catus [12] were 65% and 250%, respectively. Further, the figures for the Max temperature decrease in the assay with Mus musculus [6] and in the assay with Mus musculus [9] were 5.2 and 2.4, respectively. In addition, the pIC50 against D(2) dopamine receptor [13] was < 6.00.
On to `C=CCN1CC[C@H]2c3c(cccc3OC)CC[C@H]21` (racemic), for which the Control is on record as 189% in the assay on Felis catus [14], 59% in the assay on Felis catus [4], -52% in the assay listed under Rattus norvegicus [16] and 48% with Rattus norvegicus [27]. Moreover, the Locomotor activity was 121 with Mus musculus [15]; 4 in the assay with Mus musculus [17]; 37 in the assay on Mus musculus [19]; 6 in the assay on Mus musculus [20]; 70 with Mus musculus [21]; 54 in the assay on Mus musculus [22]. The Locomotor activity in the assay with Mus musculus [23] came out at 55; with Mus musculus [24] it was 6; in the assay with Mus musculus [25], 94; in the assay with Mus musculus [26], 94; in the assay on Mus musculus [28] it was 45; in the assay on Mus musculus [29], 96. Also, the median effective dose (ED50) worked out at 0.04 µmol/kg in the assay with Rattus norvegicus [18], 8.2 µmol/kg in the assay with Mus musculus [5] and 101 µmol/kg with Mus musculus [7]. Moreover, the figures for the Max temperature decrease in the assay with Mus musculus [6] and in the assay on Mus musculus [9] were 4.2 and 3.6, respectively.
As for `CCCN1CC[C@H]2c3cccc(OC)c3CC[C@H]21` (racemic), the Control in the assay listed under Rattus norvegicus [30] is reported as 34%; in the assay listed under Rattus norvegicus [31] it was 7%.
In the case of `CCCN1CC[C@H]2c3ccccc3CC[C@H]21` (racemic), the negative-log Ki (pKi) on D(2) dopamine receptor [32] is 6.26. Besides, the Locomotor activity with Mus musculus [33] worked out at 56; in the assay with Mus musculus [20] it was 15; in the assay on Mus musculus [23], 128; in the assay on Mus musculus [25], 76.
Turning to `C=CCN1CC[C@H]2c3ccccc3CC[C@H]21` (racemic), the Control with Rattus norvegicus [34] is 20%; in the assay with Felis catus [14], 0%; in the assay with Rattus norvegicus [35], -46%; in the assay with Felis catus [4] it was 60%. The 50% effective dose (ED50) with Rattus norvegicus [18] came out at 0.12 µmol/kg; in the assay with Mus musculus [5], 22 µmol/kg; in the assay with Felis catus [36], 0.36 µmol/kg; in the assay on Mus musculus [7], 69 µmol/kg. Moreover, the Max temperature decrease in the assay with Mus musculus [6] was 4.4; in the assay with Mus musculus [9], 4. Also, the BP in the assay listed under Felis catus [37] came out at 76%. The negative logarithm of the IC50 (pIC50) at D(2) dopamine receptor [13] is < 6.00.
